System: 521955-158-R2-J5-PDC complex spheroid viability
Assay: Anticancer human tumor 521955-158-R2-J5-PDC patient-derived pancreatic carcinoma cell line growth inhibition [GQUAD]
Conditions: for IC50: curve of first compound; for viability, T/C: stronger effect = lower value
Description: DNA G-quadruplex Stabilizer Agents in Combinations in Complex Spheroids
A high-throughput screen of multi-cell type tumor spheroids was designed to identify active combinations of DNA G-quadruplex stabilizer agents and targeted small molecules. Complex spheroids include a stromal component modeled by human endothelial cells (HUVEC) and fibroblasts modeled by human mesenchymal stem cells (MSCs). The concentration ranges selected for each drug and investigational agent were based upon clinically achievable concentrations if the clinical Cmax of the agent was known.
Compounds. The drugs and investigational agents: pidnarulex (CX-5461; NSC782164), APTO-253 (NSC789042), BRACO-19 (NSC847499), peposertib (NSC802822), ceralasertib (NSC780249), elimusertib (NSC800525), camonsertib (NSC841442), AZD-1390 (NSC803789), olaparib (NSC753686), talazoparib (NSC767125), ART-558 (NSC835418), sotorasib (NSC818433), MRTX-1133 (NSC836407), SN-38 (NSC673596), topotecan (NSC609699), etoposide (NSC141540), doxorubicin (NSC123127), gemcitabine (NSC613327), 5-fluorouracil (NSC19893), paclitaxel (NSC125973), vemurafenib (NSC761431), panobinostat (NSC761190), R-306465 (JNJ-16241199; NSC773264), adavosertib (NSC754352), TP-3654 (NSC805149), carboplatin (NSC241240), KSQ-4279 (NSC840948), and staurosporine (NSC755774) were obtained from the National Cancer Institute (NCI) Developmental Therapeutics Program Chemical Repository (34). The FDA-approved anticancer drug set is available from the NCI Developmental Therapeutics Program. […] The stock solutions were prepared in dimethyl sulfoxide (DMSO, Sigma-Aldrich, St. Louis, MO, cat. D2650) at 800-fold the tested concentration and stored at -70 degrees C prior to their use. All drugs and investigational agents were tested over a range starting from a high concentration at or near the clinical Cmax and decreasing in half-log increments. If the clinical Cmax for an agent had not been determined, the highest concentration tested was 10 microM.
2.3 Cell Culture. All cells were maintained in an incubator at 37 degrees C and 5% CO2 with 95% humidity. The PDC lines were cultured according to standard operating procedures established by the NCI PDMR. All PDCs were thawed and cultured in Matrigel-coated flasks prepared with a working solution of 1X Ham's F-12 nutrient mix, without supplementation (Invitrogen, cat. 11765054), 100 U/mL penicillin-streptomycin (Invitrogen, cat. 15140122), and 2.5% Matrigel (Corning Inc., cat. 354248) for the first three passages. The 857933-349-R-J2-PDC line was cultured in 6C/Colon 1B media, which includes advanced DMEM/F-12 (Thermo Fisher Scientific, cat. 12634028), 10 mM HEPES (Thermo Fisher Scientific, cat. 15630080), 1X GlutaMAX supplement (Thermo Fisher Scientific, cat. 35050061), 0.1 mg/mL primocin (InvivoGen, cat. ant-pm-2), 10% defined fetal bovine serum, heat inactivated (HyClone Laboratories Inc., cat. SH30070.03HI), 50% L-WRN conditioned media (ATCC, cat. CRL-3276), 1.25 mM N-Acetyl-L-cysteine (Sigma-Aldrich, cat. A9165), 10 mM nicotinamide (Sigma-Aldrich, cat. N0636), 1X B-27 supplement (Thermo Fisher Scientific, cat. 17504044), 1X N-2 supplement (Thermo Fisher Scientific, cat. 17502048), 10 microM Y-27632 dihydrochloride (Tocris Bioscience, cat. 1254), and 50 ng/mL human EGF recombinant protein (Thermo Fisher Scientific, cat. PHG0311). The 485176-168-R4-J1-PDC line was cultured in Panc media, which includes all 6C/Colon 1B media components plus 100 ng/mL human FGF-10 (Thermo Fisher Scientific, cat. 100-26), 500 nM SB-431542 (Selleckchem, cat. S1067), and gastrin (Tocris, cat. 3006).
[…]

[1] = second compound 0.0316 µM, first compound 0.0316 µM
[2] = second compound 0.0316 µM, first compound 0.316 µM
[3] = second compound 0.1 µM, first compound 0.0316 µM
[4] = second compound 0.1 µM, first compound 0.316 µM
[5] = second compound 0.316 µM, first compound 0.0316 µM
[6] = second compound 0.316 µM, first compound 0.316 µM
[7] = second compound 1 µM, first compound 0.0316 µM
[8] = second compound 1 µM, first compound 0.316 µM
[9] = second compound 3.16 µM, first compound 0.0316 µM
[10] = second compound 3.16 µM, first compound 0.316 µM
[11] = second compound 10 µM, first compound 0.0316 µM
[12] = second compound 10 µM, first compound 0.316 µM
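Further: spheroids exposed to agents for one week before reading.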
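Wherever viability, T/C is given: 100% = DMSO vehicle control viability.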

COc1cc(C2c3cc4c(cc3C(OC3OC5COC(C)OC5C(O)C3O)C3COC(=O)C23)OCO4)cc(OC)c1O (centres undefined) + CN(C)c1ccc(Nc2c3ccc(NC(=O)CCN4CCCC4)cc3nc3cc(NC(=O)CCN4CCCC4)ccc23)cc1
IC50 (second compound 0.0316 µM): 771 nM | IC50 (second compound 0.1 µM): 808 nM | IC50 (second compound 0.316 µM): 689 nM | IC50 (second compound 1 µM): 650 nM | IC50 (second compound 3.16 µM): 551 nM | IC50 (second compound 10 µM): 594 nM | viability, T/C [1]: 109% | viability, T/C (second compound 0.0316 µM, first compound 0.1 µM): 89.3% | viability, T/C [2]: 65% | viability, T/C (second compound 0.0316 µM, first compound 1 µM): 45.1% | viability, T/C (second compound 0.0316 µM, first compound 3.16 µM): 30.1% | viability, T/C (second compound 0.0316 µM, first compound 10 µM): 17.1% | viability, T/C [3]: 82.9% | viability, T/C (second compound 0.1 µM, first compound 0.1 µM): 104% | viability, T/C [4]: 76.5% | viability, T/C (second compound 0.1 µM, first compound 1 µM): 43.1% | viability, T/C (second compound 0.1 µM, first compound 3.16 µM): 32.5% | viability, T/C (second compound 0.1 µM, first compound 10 µM): 20.1% | viability, T/C [5]: 94.2% | viability, T/C (second compound 0.316 µM, first compound 0.1 µM): 85.3% | viability, T/C [6]: 69.5% | viability, T/C (second compound 0.316 µM, first compound 1 µM): 40.1% | viability, T/C (second compound 0.316 µM, first compound 3.16 µM): 25.6% | viability, T/C (second compound 0.316 µM, first compound 10 µM): 18.2% | viability, T/C [7]: 89.5% | viability, T/C (second compound 1 µM, first compound 0.1 µM): 93.5% | viability, T/C [8]: 55.8% | viability, T/C (second compound 1 µM, first compound 1 µM): 45.8% | viability, T/C (second compound 1 µM, first compound 3.16 µM): 28% | viability, T/C (second compound 1 µM, first compound 10 µM): 19.2% | viability, T/C [9]: 97.5% | viability, T/C (second compound 3.16 µM, first compound 0.1 µM): 78.9% | viability, T/C [10]: 61.4% | viability, T/C (second compound 3.16 µM, first compound 1 µM): 39% | viability, T/C (second compound 3.16 µM, first compound 3.16 µM): 26% | viability, T/C (second compound 3.16 µM, first compound 10 µM): 19.9% | viability, T/C [11]: 79.1% | viability, T/C (second compound 10 µM, first compound 0.1 µM): 71% | viability, T/C [12]: 55.2% | viability, T/C (second compound 10 µM, first compound 1 µM): 43% | viability, T/C (second compound 10 µM, first compound 3.16 µM): 36.1% | viability, T/C (second compound 10 µM, first compound 10 µM): 23.3%

Cn1ncnc1[C@H]1c2n[nH]c(=O)c3cc(F)cc(c23)N[C@@H]1c1ccc(F)cc1 + CN(C)c1ccc(Nc2c3ccc(NC(=O)CCN4CCCC4)cc3nc3cc(NC(=O)CCN4CCCC4)ccc23)cc1
IC50 (second compound 0.0316 µM): > 316 nM | IC50 (second compound 0.1 µM): > 316 nM | IC50 (second compound 0.316 µM): > 316 nM | IC50 (second compound 1 µM): > 316 nM | IC50 (second compound 3.16 µM): > 316 nM | IC50 (second compound 10 µM): > 316 nM | viability, T/C (second compound 0.0316 µM, first compound 0.000999 µM): 99.1% | viability, T/C (second compound 0.0316 µM, first compound 0.00316 µM): 89% | viability, T/C (second compound 0.0316 µM, first compound 0.00999 µM): 104% | viability, T/C [1]: 91.1% | viability, T/C (second compound 0.0316 µM, first compound 0.0999 µM): 90.7% | viability, T/C [2]: 80% | viability, T/C (second compound 0.1 µM, first compound 0.000999 µM): 92.8% | viability, T/C (second compound 0.1 µM, first compound 0.00316 µM): 98.7% | viability, T/C (second compound 0.1 µM, first compound 0.00999 µM): 90% | viability, T/C [3]: 93.9% | viability, T/C (second compound 0.1 µM, first compound 0.0999 µM): 92.2% | viability, T/C [4]: 81.4% | viability, T/C (second compound 0.316 µM, first compound 0.000999 µM): 97.5% | viability, T/C (second compound 0.316 µM, first compound 0.00316 µM): 95.7% | viability, T/C (second compound 0.316 µM, first compound 0.00999 µM): 93.3% | viability, T/C [5]: 90.6% | viability, T/C (second compound 0.316 µM, first compound 0.0999 µM): 88.2% | viability, T/C [6]: 83.7% | viability, T/C (second compound 1 µM, first compound 0.000999 µM): 99.6% | viability, T/C (second compound 1 µM, first compound 0.00316 µM): 90.2% | viability, T/C (second compound 1 µM, first compound 0.00999 µM): 92.1% | viability, T/C [7]: 97% | viability, T/C (second compound 1 µM, first compound 0.0999 µM): 89.2% | viability, T/C [8]: 73.7% | viability, T/C (second compound 3.16 µM, first compound 0.000999 µM): 87.4% | viability, T/C (second compound 3.16 µM, first compound 0.00316 µM): 77.9% | viability, T/C (second compound 3.16 µM, first compound 0.00999 µM): 76.4% | viability, T/C [9]: 67.5% | viability, T/C (second compound 3.16 µM, first compound 0.0999 µM): 74.7% | viability, T/C [10]: 66.3% | viability, T/C (second compound 10 µM, first compound 0.000999 µM): 68.1% | viability, T/C (second compound 10 µM, first compound 0.00316 µM): 70.6% | viability, T/C (second compound 10 µM, first compound 0.00999 µM): 70.7% | viability, T/C [11]: 60.5% | viability, T/C (second compound 10 µM, first compound 0.0999 µM): 61.4% | viability, T/C [12]: 59.4%

Source: PubChem BioAssay AID2060495 (Molecular Pharmacology Branch, DTP, NCI, 2025)
